Measured values from patent publication US20060276464A1, “Diarylsulfone sulfonamides and use thereof” (Wyeth, priority 2005, published 2006).
Several values for one entry are separate records, joined by “and”; a condition that tells them apart may be missing. Equal values may be shown once. Read-outs that look alike come from different tables or passages of the source.

Legend:
SFRP-1 [1] = target: T1, SFRP-1 (Homo sapiens, UniProt Q8N474); assay: Cell-based assay for in vitro measurement of SFRP-1/SARP2 antagonist activity (U2OS cells co-transfected with 16x TCF-tk-Luciferase reporter, Wnt and hSFRP-1); settings: for fold induction at 10 µM / fold induction at 15 µM: U2OS; for fold induction at 10 µM: read-out: Fold Induction with SFRP-1, U2OS cells, single dose 10 μM, luciferase reporter, fold induction over SFRP-1 control;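 as to all read-outs here: U2OS cells co-transfected with a TCF-tk luciferase reporter, a Wnt vector, hSFRP-1 or empty vector and CMV-βgal, luciferase luminescence read in cell lysates alongside βgal activity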
T1 sequence (Q8N474 32-314): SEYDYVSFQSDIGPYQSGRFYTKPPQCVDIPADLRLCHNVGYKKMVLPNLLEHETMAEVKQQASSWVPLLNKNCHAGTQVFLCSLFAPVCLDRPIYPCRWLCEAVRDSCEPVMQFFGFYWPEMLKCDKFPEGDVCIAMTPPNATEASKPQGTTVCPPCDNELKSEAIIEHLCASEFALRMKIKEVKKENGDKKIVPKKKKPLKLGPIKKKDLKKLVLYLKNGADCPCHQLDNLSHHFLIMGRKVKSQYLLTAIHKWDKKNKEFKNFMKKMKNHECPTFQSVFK

SFRP-1 [2] = target: T1, SFRP-1; assay: Fluorescence polarization binding assay (competitive displacement of a probe compound from SFRP-1); settings: fluorescence anisotropy, 45 nM SFRP-1, 20 nM probe;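 also: test compound competes with a fluorescent probe held by SFRP-1, seen as a drop in probe anisotropy after incubation in darkness, with anisotropy as function of rising compound dose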
[3] = read-out: Fold Induction with SFRP-1, Conc 15 μM, with SFRP-1, fold induction over SFRP-1 control, single dose
[4] = read-out: Fold Induction without SFRP-1, Conc 15 μM, without SFRP-1, single dose
[5] = read-out: Fold Induction with SFRP-1, Conc 15 μM, single dose, luciferase reporter, fold induction over SFRP-1 control, cells with SFRP-1
[6] = read-out: Fold Induction without SFRP-1, Conc 15 μM, single dose, luciferase reporter, cells without SFRP-1 (specificity control)

Row | Compound | EC50 (SFRP-1 [1]) [nM] | IC50 (SFRP-1 [2]) | fold induction at 10 µM (SFRP-1 [1]) | fold induction at 15 µM (SFRP-1 [1]; [3]) | fold induction at 15 µM (SFRP-1 [1]; [4]) | fold induction at 15 µM (SFRP-1 [1]; [5]) | fold induction at 15 µM (SFRP-1 [1]; [6])
1 | CN(CCNS(=O)(=O)c1cc(S(=O)(=O)c2ccccc2)ccc1C(F)(F)F)C(=O)N[C@H]1CCCN(C(=O)OC(C)(C)C)C1 [Example 1010, tert-butyl (3S)-3-[({methyl[2-({[5-(phenylsulfonyl)-2-(trifluoromethyl)phenyl]sulfonyl}amino)ethyl]amino}carbonyl)amino]piperidine-1-carboxylate] | 2000 | 600 nM | – | – | – | – | –
2 | CCc1ccc(S(=O)(=O)c2ccccc2)cc1S(=O)(=O)NC1CCNCC1 [Example 921, 2-ethyl-5-(phenylsulfonyl)-N-piperidin-4-ylbenzenesulfonamide] | 2360 | 4000 nM | 2.5 | – | – | – | –
3 | Cc1ccc(S(=O)(=O)c2ccccc2)cc1S(=O)(=O)NC1CCN(C(=O)c2cccc(C#N)c2)CC1 [Example 477, N-[1-(3-cyanobenzoyl)piperidin-4-yl]-2-methyl-5-(phenylsulfonyl)benzenesulfonamide] | – | 2200 nM | – | 2.1 | 1 | – | –
4 | CN(CCNS(=O)(=O)c1cc(S(=O)(=O)c2ccccc2)ccc1C(F)(F)F)C(=O)c1ccncc1 [Example 850, N-Methyl-N-[2-({[5-(phenylsulfonyl)-2-(trifluoromethyl)phenyl]sulfonyl}amino)ethyl]isonicotinamide] | 1520 | 600 nM | 3.5 | – | – | – | –
5 | CC(C)c1ccc(S(=O)(=O)c2cccc(Cl)c2)cc1S(=O)(=O)NCCc1ccccn1 [Example 455, 5-[(3-chlorophenyl)sulfonyl]-2-isopropyl-N-(2-pyridin-2-ylethyl)benzenesulfonamide] | – | 500 nM | – | 3.2 | 1 | – | –
6 | COc1cccc(OC)c1C(=O)N1CCC(NS(=O)(=O)c2cc(S(=O)(=O)c3ccccc3)ccc2C(F)(F)F)CC1 [Example 707, N-[1-(2,6-dimethoxybenzoyl)piperidin-4-yl]-5-(phenylsulfonyl)-2-(trifluoromethyl)benzenesulfonamide] | 187 | 200 nM | 4.2 | – | – | – | –
7 | COc1ccc(CCNS(=O)(=O)c2cc(S(=O)(=O)c3ccccc3)ccc2C(F)(F)F)cc1 [Example 939, N-[2-(4-methoxyphenyl)ethyl]-5-(phenylsulfonyl)-2-(trifluoromethyl)benzenesulfonamide] | – | 700 nM | 2.2 | – | – | – | –
8 | Cc1ccc(S(=O)(=O)c2ccccc2)cc1S(=O)(=O)NC1CCN(C(=O)c2ccco2)CC1 [Example 449, N-[1-(2-furoyl)piperidin-4-yl]-2-methyl-5-(phenylsulfonyl)benzenesulfonamide] | – | 3000 nM | – | 2.8 | 1.1 | – | –
9 | C[C@@H](C(N)=O)N1CCC(NS(=O)(=O)c2cc(S(=O)(=O)c3ccccc3)ccc2C(F)(F)F)CC1 [Example 1039, (2S)-2-[4-({[5-(phenylsulfonyl)-2-(trifluoromethyl)phenyl]sulfonyl}amino)piperidin-1-yl]propanamide] | 244 | 400 nM | – | – | – | – | –
10 | CC(C)c1ccc([S@@+]([O-])c2ccccc2)cc1S(=O)(=O)NCCc1ccccn1 [Example 591, 2-isopropyl-5-[(S)-phenylsulfinyl]-N-(2-pyridin-2-ylethyl)benzenesulfonamide] | – | 5000 nM and 6000 nM | – | – | – | 3.1 | 1.3
11 | C[C@@H](NS(=O)(=O)c1cc(S(=O)(=O)c2ccccc2)ccc1C(F)(F)F)[C@H](O)c1ccccc1 (relative stereo) [Example 684, N-[(1R*,2R*)-2-hydroxy-1-methyl-2-phenylethyl]-5-(phenylsulfonyl)-2-(trifluoromethyl)benzenesulfonamide] | 29300 | 1000 nM | 1.7 | – | – | – | –
12 | Cc1cc(F)ccc1S(=O)(=O)c1ccc(C(C)C)c(S(=O)(=O)NCCc2ccccn2)c1 [Example 596, 5-[(4-fluoro-2-methylphenyl)sulfonyl]-2-isopropyl-N-(2-pyridin-2-ylethyl)benzenesulfonamide] | – | 1600 nM | – | – | – | 4.2 | 1.3
13 | Cc1cc(C)c(S(=O)(=O)c2ccc(F)cc2)cc1S(=O)(=O)NCCn1ccnc1 [Example 329, 5-[(4-fluorophenyl)sulfonyl]-N-[2-(1H-imidazol-1-yl)ethyl]-2,4-dimethylbenzenesulfonamide] | – | 1000 nM | – | 2.9 | 0.9 | – | –
14 | CC(=O)Nc1ccc(C(=O)N2CCC(NS(=O)(=O)c3cc(S(=O)(=O)c4ccccc4)ccc3C)CC2)cc1 [Example 480, N-(4-{[4-({[2-methyl-5-(phenylsulfonyl)phenyl]sulfonyl}amino)piperidin-1-yl]carbonyl}phenyl)acetamide] | – | 2900 nM | – | 1.7 | 1 | – | –
15 | CCc1ccc(S(=O)(=O)c2ccccc2)cc1S(=O)(=O)NCCCN(CC)CC [Example 230, N-[3-(diethylamino)propyl]-2-ethyl-5-(phenylsulfonyl)benzene sulfonamide] | – | 16000 nM | – | 3.2 | 1.2 | – | –
16 | O=C(c1ccc(=O)n(S(=O)(=O)c2cc(S(=O)(=O)c3ccccc3)ccc2C(F)(F)F)c1)N1CCC(NS(=O)(=O)c2cc(S(=O)(=O)c3ccccc3)ccc2C(F)(F)F)CC1 [Example 1020, N-{1-[(6-oxo-1-{[5-(phenylsulfonyl)-2-(trifluoromethyl)phenyl]sulfonyl}-1,6-dihydropyridin-3-yl)carbonyl]piperidin-4-yl}-5-(phenylsulfonyl)-2-(trifluoromethyl)benzenesulfonamide] | 264 | 600 nM | – | – | – | – | –
17 | CSCCC(=O)N1CCC(NS(=O)(=O)c2cc(S(=O)(=O)c3ccccc3)ccc2C(F)(F)F)CC1 [Example 1053, N-{1-[3-(methylthio)propanoyl]piperidin-4-yl}-5-(phenylsulfonyl)-2-(trifluoromethyl)benzenesulfonamide] | 190 | 40 nM | – | – | – | – | –
18 | Cc1ccc(S(=O)(=O)c2ccccc2)cc1S(=O)(=O)NC1CCN(C(=O)c2ccno2)CC1 [Example 485, N-[1-(isoxazol-5-ylcarbonyl)piperidin-4-yl]-2-methyl-5-(phenylsulfonyl)benzenesulfonamide] | – | 1700 nM | – | – | – | 2.5 | 1
19 | O=C(N1CCOCC1)N1CCC(NS(=O)(=O)c2cc(S(=O)(=O)c3ccccc3)ccc2Cl)CC1 [Example 650, 2-chloro-N-[1-(morpholin-4-ylcarbonyl)piperidin-4-yl]-5-(phenylsulfonyl)benzenesulfonamide] | – | 10000 nM | – | – | – | 3.4 | 1.1
20 | Cc1ccc(S(=O)(=O)c2ccc(F)cc2)cc1S(=O)(=O)NCC(O)c1cccnc1 (stereo not drawn) [Example 740, 5-[(4-fluorophenyl)sulfonyl]-N-(2-hydroxy-2-pyridin-3-ylethyl)-2-methylbenzenesulfonamide] | – | 6000 nM | 3.3 | – | – | – | –
21 | COc1ccc(NC(=O)N(C)CCNS(=O)(=O)c2cc(S(=O)(=O)c3ccccc3)ccc2C(F)(F)F)c(OC)c1 [Example 828, N-{2-[{[(2,4-dimethoxyphenyl)amino]carbonyl}(methyl)amino]ethyl}-5-(phenylsulfonyl)-2-(trifluoromethyl)benzenesulfonamide] | 2360 | 300 nM | 2.8 | – | – | – | –
